Data on two compounds can be found in patent US20250154172A1, “PRMT5 INHIBITORS AND USES THEREOF” (Gilead Sciences, Inc., priority 2023, published 2025).

For orientation: GI50 means the concentration at which growth is held to half of that of the control. In general, half-life refers to the time needed for the level to fall by half in the phase considered. Read a low half-life as fast loss.

In one series the test system is SW780. Briefly: Cell viability assay for additional cell lines: SW780. Particulars: for GI50: Homo sapiens, 216 h, 9-day treatment, average of n=2, read-out: MTAP-Deleted GI50. The format is cell-based. The method, then:
(§1) Some Compounds of the Disclosure were tested in Calu-6 (Vendor: ATCC; Cat #HTB-56; Description: lung, adenocarcinoma), LU99 (Vendor: JCRB; Cat #JCRB0080; Description: non-small cell lung cancer), SW780 (Vendor: ATCC; Cat #CRL-2169; Description: bladder urothelial carcinoma), BxPC-3 (Vendor: ATCC; Cat #CRL-1687; Description: pancreatic adenocarcinoma), Panc-1 (Vendor: ATCC; Cat #CRL-1469 Description: pancreatic adenocarcinoma), AsPC-1 (Vendor: ATCC; Cat #CRL-1682; Description: pancreatic adenocarcinoma), Calu-6 (Vendor: ATCC; Cat #HTB-56; Description: non-small cell lung cancer), and U-2 OS (Vendor: ATCC; Cat #HTB-96; Description: osteosarcoma), cellular viability assays according to the general protocol. Seeded cells into 96-well plate and incubated overnight. Seeded an additional 10 wells per cell line in an additional 96-well plate for assessing Time Zero luminescence and incubated overnight. To treatment plates, added compounds into each well using Tecan D300e dispenser (nine three-fold dilutions starting at 10 μM) and incubated for 9 days. Time Zero (no compound treatment, luminescence assessed on day 1) and 9-day treatment (luminescence assessed on day 10) plates were assessed using the same CellTiter-Glo® substrate protocol. Thawed CellTiter-Glo® Buffer and lyophilized CellTiter-Glo® substrate and equilibrated to room temperature prior to use. The DMSO concentration was normalized to 0.137%. Transferred 100 ml CellTiter-Glo® Buffer into amber bottle containing CellTiter-Glo® substrate to reconstitute the lyophilized enzyme/substrate mixture. For Time Zero and 9-day treatment plates, removed all plating media. Added 100 μl fresh media/well. Added 100 μl CellTiter-Glo® Reagent per well. Mixed contents for 10 min on an orbital shaker to lyse cells. Recorded luminescence with Perkin Elmer Envision 2105 machine. Analyzed the data with GraphPad software. Potency fold difference is defined as GI50 (AMG193)/GI50 (Ca-47) for the MTAP^del cell line of interest. The structure of AMG193 is as follows.

For the next series, the system named is U-2 OS. Briefly: Cell viability assay for additional cell lines: U-2 OS. It counts as cell-based. Particulars: Homo sapiens, U2OS, 216 h, 9-day treatment, average of n=2, read-out: MTAP-WT GI50. The method, then: as §1, with “Thawed CellTiter-Glo® Buffer and lyophilized CellTiter-Glo® substrate and equilibrated to room temperature prior to use. The DMSO concentration was normalized to 0.137%. Transferred 100 ml CellTiter-Glo® Buffer into amber bottle containing CellTiter-Glo® substrate to reconstitute the lyophilized enzyme/substrate mixture. For Time Zero and 9-day treatment plates, removed all plating media. Added 100 μl fresh media/well. Added 100 μl CellTiter-Glo® Reagent per well. Mixed contents for 10 min on an orbital shaker to lyse cells.” left out, “Potency fold difference is defined as GI50 (AMG193)/GI50 (Ca-47) for the MTAP^del cell line of interest. The structure of AMG193 is as follows.” left out

The subject of the next series is AsPC-1. Briefly: Cell viability assay for additional cell lines: AsPC-1. The format is cell-based. The following applies: Homo sapiens, ASPC1, 216 h, 9-day treatment, average of n=2, read-out: MTAP-WT GI50. The method, then: as §1, with “Thawed CellTiter-Glo® Buffer and lyophilized CellTiter-Glo® substrate and equilibrated to room temperature prior to use. The DMSO concentration was normalized to 0.137%. Transferred 100 ml CellTiter-Glo® Buffer into amber bottle containing CellTiter-Glo® substrate to reconstitute the lyophilized enzyme/substrate mixture. For Time Zero and 9-day treatment plates, removed all plating media. Added 100 μl fresh media/well. Added 100 μl CellTiter-Glo® Reagent per well. Mixed contents for 10 min on an orbital shaker to lyse cells.” left out, “Potency fold difference is defined as GI50 (AMG193)/GI50 (Ca-47) for the MTAP^del cell line of interest. The structure of AMG193 is as follows.” left out

The subject of another series is Panc-1. Description: Cell viability assay for additional cell lines: Panc-1. Particulars: for GI50: Homo sapiens, 216 h, 9-day treatment, average of n=2, read-out: MTAP-Deleted GI50. It counts as cell-based. The method, then:
as §1

The test system of the next series is Calu-6. Description: Cell viability assay for additional cell lines: Calu-6. The format is cell-based. The following applies: Homo sapiens, 216 h, 9-day treatment, average of n=2, read-out: MTAP-WT GI50. The method, then:
as §1, with “Thawed CellTiter-Glo® Buffer and lyophilized CellTiter-Glo® substrate and equilibrated to room temperature prior to use. The DMSO concentration was normalized to 0.137%. Transferred 100 ml CellTiter-Glo® Buffer into amber bottle containing CellTiter-Glo® substrate to reconstitute the lyophilized enzyme/substrate mixture. For Time Zero and 9-day treatment plates, removed all plating media. Added 100 μl fresh media/well. Added 100 μl CellTiter-Glo® Reagent per well. Mixed contents for 10 min on an orbital shaker to lyse cells.” left out, “Potency fold difference is defined as GI50 (AMG193)/GI50 (Ca-47) for the MTAP^del cell line of interest. The structure of AMG193 is as follows.” left out

The nature of another series: Sprague-Dawley Rat PK. The format is in vivo. The following applies: for BPR: Blood plasma ratio; for clearance / half-life / Vd: IV 0.33 mg/Kg; for clearance: plasma clearance, read-out: Observed CLp (converted); for Fold IVIVc: [Observed CLp/[BPR]/[Predicted Hepatocyte CL]; for half-life / Vd: plasma; for Vd: read-out: Vss. An excerpt: The following abbreviations are defined as follows for table 5. BPR: Blood plasma ratio, CLp: plasma clearance.
Cell viability assay data for LU99, SW780, BxPC-3, Panc-1, AsPC-1, Calu-6 and U-2 OS for AMG-193 and example Ca-47 are provided in Table 4. The following abbreviations are defined as follows for table 5. BPR: Blood plasma ratio, CLp: plasma clearance. Fold IVIVc=[Observed CLp/[BPR]/[Predicted Hepatocyte CL]

Turning to `Nc1nc2cnc(C(=O)N3CCOC[C@@H]3c3ccc(C(F)(F)F)cc3)cc2c2c1COC2` [AMG193, reference compound], the GI50 in the series with SW780 turned out to be 96 nM. Moreover, the GI50 in the series on U-2 OS was 9.36 µM. In the series with AsPC-1, the GI50 was more than 10000 nM. Further, the GI50 in the series with Panc-1 turned out to be 517 nM. In addition, in the series on Calu-6, the GI50 was 7 µM. In addition, in the series “Sprague-Dawley Rat PK”, the BPR is reported as 0.95, the clearance was 37.7 mL/min/kg, the “Fold IVIVc” value is recorded as 1x and the half-life is 66 min. Moreover, the Vd in the series “Sprague-Dawley Rat PK” was 1.82 L/kg.
As for `Nc1nc2cnc(C(=O)N3CCC[C@@H]4Oc5cc(C(F)(F)F)cc(F)c5[C@@H]43)cc2c2c1COC2` [Example Ca-47, (4-amino-1,3-dihydrofuro[3,4-c][1,7]naphthyridin-8-yl)((4aS,9bS)-9-fluoro-7-(trifluoromethyl)-3,4,4a,9b-tetrahydrobenzofuro[3,2-b]pyridin-1(2H)-yl)methanone], the Potency fold difference was 5.6 in the series on SW780 (GI50 (AMG193)/GI50 (Ca-47)) and 5.9 in the series on Panc-1 (GI50 (AMG193)/GI50 (Ca-47)). The GI50 in the series on SW780 is 17 nM; with U-2 OS, 2.3 µM; in the series on AsPC-1, 2800 nM; in the series on Panc-1 it was 87 nM; in the series with Calu-6, 1.6 µM. The BPR in the series “Sprague-Dawley Rat PK” stood at 0.89. Moreover, the clearance in “Sprague-Dawley Rat PK” is 14.2 mL/min/kg. Also, the “Fold IVIVc” value in the series “Sprague-Dawley Rat PK” is 0.37x. The half-life in the series “Sprague-Dawley Rat PK” was 150 min. In the series “Sprague-Dawley Rat PK”, the Vd was 2.08 L/kg.
